Common to all, as to assay: Test of herbicidal activities (greenhouse pot method)
What all share (assay type): in vivo
Holding throughout (settings): single dose 300 g ai./h, treated before/after germination, 15 days later, greenhouse pot

In test [1] the test system is Setaria viridis. Here is the method:
(§1) Garden soil was collected from regions where no pesticide is used and mixed uniformly with mountain soil and organic humus soil at a volume ratio of 1:1:1.
(§2) Multiple flowerpots each having a diameter of 9.5 cm and a depth of 8 cm were filled with the soil mixture to 3/4 volume. After water was added to the soil and the soil was completely wet, seeds of three grass weeds and three broadleaf weeds were inserted into the flowerpots (10-15 seeds for each weed). After seeding, the seeds were covered with fine oil mixed with sand and having a thickness of 1-3 cm. After the soil absorbed enough water and became saturated, excess water at the bottom of the flowerpot was drained, and the seeds were placed in a greenhouse for growth.
(§3) The weeds were watered every day so as to keep relative humidity of the soil at approximately 80%, growing temperature of 15-30° C., and air humidity above 50%. As the grass weeds grew to a 2-leaf stage and the broadleaf weeds was in a leaf period, spraying operation […] was performed on the stems and leafs. Planting before germination was performed before spraying. Soil processing was performed before the seeds of the weeds emerged.
(§4) Six target weeds comprising three grass weeds: Echinochloa crusgalli, Digiatria sanguinalis, Setaria viridis, along with three broadleaf weeds: Brassica juncea, Amaranthus retroflexus, Chenopodium album were treated before/after germination using a so-called “greenhouse pot” method with a single dose. A treating dose was 300 g ai./h. The process was repeated three times, and a blank control was used.
(§5) A 3WPSHZ-500 type automatic spraying tower with a spraying area of 0.132 m^2, a spray volume of 10 mL, working pressure of 0.2 MPa, and a liquid volume of 40% of maximum was used. After treatment, the weeds were placed in a greenhouse at a temperature of 15-30° C. Reaction symptoms of the weeds were regularly observed, and 15 days later, five reaction levels were determined according to the following inhibition intervals: 90≦A≦100%; 80≦B<90%, 60≦C<80%; 50≦D<60%, E<50%.

The test system of test [2] is Chenopodium album. Here is the method:
as §1, §2, §3, §4, §5

For test [3], the system named is Echinochloa crusgalli. Here is the method: as §1, §2, §3, §4, §5
Test [4] has as its system Digiatria sanguinalis. Here is the method:
as §1, §2, §3, §4, §5

Test [5] has as its system Brassica juncea. As for the experimental part:
as §1, §2, §3, §4, §5

Test [6] deals with Amaranthus retroflexus. As for the experimental part: as §1, §2, §3, §4, §5

In the case of `Cc1nn(-c2cc3nc(SCc4ccccc4Cl)sc3cc2Cl)c(=O)n1C(F)F` [Compound 3], the “Herbicidal activity Setaria viridis (inhibition level)” value in test [1] is “E (E < 50%)”. For the same compound, the “Herbicidal activity Chenopodium album (inhibition level)” value in test [2] is reported as “E (E < 50%)”. In addition, the “Herbicidal activity Echinochloa crusgalli (inhibition level)” value in test [3] is “E (E < 50%)”. The “Herbicidal activity Digiatria sanguinalis (inhibition level)” value in test [4] is reported as “C (60 ≦ C < 80%)”. For the same compound, the “Herbicidal activity Brassica juncea (inhibition level)” value in test [5] is on record as “C (60 ≦ C < 80%)”. Also, in test [6], the “Herbicidal activity Amaranthus retroflexus (inhibition level)” value is “B (80 ≦ B < 90%)”.

`CCOC(=O)CSc1nc2cc(-n3nc(C(F)(F)F)n(C(F)F)c3=O)c(Br)cc2s1` [Compound 127]: the “Herbicidal activity Setaria viridis (inhibition level)” value in test [1] is “D (50 ≦ D < 60%)”. Moreover, in test [2], the “Herbicidal activity Chenopodium album (inhibition level)” value is on record as “B (80 ≦ B < 90%)”. Besides, the “Herbicidal activity Echinochloa crusgalli (inhibition level)” value in test [3] was “C (60 ≦ C < 80%)”. Besides, the “Herbicidal activity Digiatria sanguinalis (inhibition level)” value in test [4] is on record as “B (80 ≦ B < 90%)”. The “Herbicidal activity Brassica juncea (inhibition level)” value in test [5] was “B (80 ≦ B < 90%)”. Also, the “Herbicidal activity Amaranthus retroflexus (inhibition level)” value in test [6] is on record as “B (80 ≦ B < 90%)”.

For the compound `Cc1nn(-c2cc3nc(S(=O)(=O)Cc4c(F)cccc4F)sc3cc2Cl)c(=O)n1C(F)F` [Compound 38], the “Herbicidal activity Setaria viridis (inhibition level)” value in test [1] is listed as “B (80 ≦ B < 90%)”. Besides, the “Herbicidal activity Chenopodium album (inhibition level)” value in test [2] is reported as “C (60 ≦ C < 80%)”. The “Herbicidal activity Echinochloa crusgalli (inhibition level)” value in test [3] was “C (60 ≦ C < 80%)”. Also, the “Herbicidal activity Digiatria sanguinalis (inhibition level)” value in test [4] was “D (50 ≦ D < 60%)”. Further, in test [5], the “Herbicidal activity Brassica juncea (inhibition level)” value is “D (50 ≦ D < 60%)”. Also, the “Herbicidal activity Amaranthus retroflexus (inhibition level)” value in test [6] was “C (60 ≦ C < 80%)”.

As to `Cc1nn(-c2cc3nc(SCc4cccc(Cl)c4)sc3cc2F)c(=O)n1C` [Compound 32], the “Herbicidal activity Setaria viridis (inhibition level)” value in test [1] was “C (60 ≦ C < 80%)”. Besides, in test [2], the “Herbicidal activity Chenopodium album (inhibition level)” value is on record as “A (90 ≦ A ≦ 100%)”. Besides, the “Herbicidal activity Echinochloa crusgalli (inhibition level)” value in test [3] was “B (80 ≦ B < 90%)”. The “Herbicidal activity Digiatria sanguinalis (inhibition level)” value in test [4] is reported as “A (90 ≦ A ≦ 100%)”. Further, the “Herbicidal activity Brassica juncea (inhibition level)” value in test [5] is reported as “B (80 ≦ B < 90%)”. In addition, in test [6], the “Herbicidal activity Amaranthus retroflexus (inhibition level)” value is “A (90 ≦ A ≦ 100%)”.

For `Cc1nn(-c2cc3nc(S(C)(=O)=O)sc3cc2F)c(=O)n1C(F)F` [Compound 62], the “Herbicidal activity Setaria viridis (inhibition level)” value in test [1] is listed as “A (90 ≦ A ≦ 100%)”. The “Herbicidal activity Chenopodium album (inhibition level)” value in test [2] is reported as “D (50 ≦ D < 60%)”. Further, in test [3], the “Herbicidal activity Echinochloa crusgalli (inhibition level)” value is “A (90 ≦ A ≦ 100%)”. The “Herbicidal activity Digiatria sanguinalis (inhibition level)” value in test [4] is reported as “B (80 ≦ B < 90%)”. Moreover, the “Herbicidal activity Brassica juncea (inhibition level)” value in test [5] is on record as “D (50 ≦ D < 60%)”. In addition, the “Herbicidal activity Amaranthus retroflexus (inhibition level)” value in test [6] is listed as “C (60 ≦ C < 80%)”.

Regarding `CCOC(=O)C(C)S(=O)(=O)c1nc2cc(-n3nc(C)n(C(F)F)c3=O)c(F)cc2s1` (stereo not drawn) [Compound 61], in test [1], the “Herbicidal activity Setaria viridis (inhibition level)” value is recorded as “C (60 ≦ C < 80%)”. The “Herbicidal activity Chenopodium album (inhibition level)” value in test [2] was “B (80 ≦ B < 90%)”. For the same compound, the “Herbicidal activity Echinochloa crusgalli (inhibition level)” value in test [3] is “C (60 ≦ C < 80%)”. Further, the “Herbicidal activity Digiatria sanguinalis (inhibition level)” value in test [4] is reported as “A (90 ≦ A ≦ 100%)”. Further, in test [5], the “Herbicidal activity Brassica juncea (inhibition level)” value is “A (90 ≦ A ≦ 100%)”. Moreover, the “Herbicidal activity Amaranthus retroflexus (inhibition level)” value in test [6] was “A (90 ≦ A ≦ 100%)”.

For the compound `CCOC(=O)CS(=O)(=O)c1nc2cc(-n3nc(C)n(C(F)F)c3=O)c(Cl)cc2s1` [Compound 70], in test [1], the “Herbicidal activity Setaria viridis (inhibition level)” value is recorded as “B (80 ≦ B < 90%)”. In addition, the “Herbicidal activity Chenopodium album (inhibition level)” value in test [2] is “B (80 ≦ B < 90%)”. Besides, in test [3], the “Herbicidal activity Echinochloa crusgalli (inhibition level)” value is on record as “B (80 ≦ B < 90%)”. The “Herbicidal activity Digiatria sanguinalis (inhibition level)” value in test [4] is on record as “B (80 ≦ B < 90%)”. For the same compound, the “Herbicidal activity Brassica juncea (inhibition level)” value in test [5] was “B (80 ≦ B < 90%)”. Besides, the “Herbicidal activity Amaranthus retroflexus (inhibition level)” value in test [6] is “B (80 ≦ B < 90%)”.

`Cc1ccccc1C[S+]([O-])c1nc2cc(-n3nc(C)n(C(F)F)c3=O)c(F)cc2s1` (stereo not drawn) [Compound 104]: the “Herbicidal activity Setaria viridis (inhibition level)” value in test [1] is “C (60 ≦ C < 80%)”. In addition, the “Herbicidal activity Chenopodium album (inhibition level)” value in test [2] is “A (90 ≦ A ≦ 100%)”. The “Herbicidal activity Echinochloa crusgalli (inhibition level)” value in test [3] was “C (60 ≦ C < 80%)”. The “Herbicidal activity Digiatria sanguinalis (inhibition level)” value in test [4] is “C (60 ≦ C < 80%)”. Moreover, the “Herbicidal activity Brassica juncea (inhibition level)” value in test [5] was “A (90 ≦ A ≦ 100%)”. Moreover, in test [6], the “Herbicidal activity Amaranthus retroflexus (inhibition level)” value is “A (90 ≦ A ≦ 100%)”.

As to `Cc1ccc([N+](=O)[O-])c(CSc2nc3cc(-n4nc(C)n(C(F)F)c4=O)c(F)cc3s2)c1` [Compound 16], the “Herbicidal activity Setaria viridis (inhibition level)” value in test [1] is given as “B (80 ≦ B < 90%)”. In addition, the “Herbicidal activity Chenopodium album (inhibition level)” value in test [2] is on record as “C (60 ≦ C < 80%)”. For the same compound, the “Herbicidal activity Echinochloa crusgalli (inhibition level)” value in test [3] was “C (60 ≦ C < 80%)”. Besides, in test [4], the “Herbicidal activity Digiatria sanguinalis (inhibition level)” value was “C (60 ≦ C < 80%)”. The “Herbicidal activity Brassica juncea (inhibition level)” value in test [5] is reported as “B (80 ≦ B < 90%)”. Besides, the “Herbicidal activity Amaranthus retroflexus (inhibition level)” value in test [6] is “C (60 ≦ C < 80%)”.

Regarding `CCS(=O)(=O)c1nc2cc(-n3nc(C)n(C(F)F)c3=O)c(F)cc2s1` [Compound 56], the “Herbicidal activity Setaria viridis (inhibition level)” value in test [1] was “D (50 ≦ D < 60%)”. Moreover, the “Herbicidal activity Chenopodium album (inhibition level)” value in test [2] was “C (60 ≦ C < 80%)”. In test [3], the “Herbicidal activity Echinochloa crusgalli (inhibition level)” value is reported as “B (80 ≦ B < 90%)”. For the same compound, the “Herbicidal activity Digiatria sanguinalis (inhibition level)” value in test [4] is on record as “D (50 ≦ D < 60%)”. The “Herbicidal activity Brassica juncea (inhibition level)” value in test [5] is “A (90 ≦ A ≦ 100%)”. In test [6], the “Herbicidal activity Amaranthus retroflexus (inhibition level)” value was “A (90 ≦ A ≦ 100%)”.

On to `CC[S+]([O-])c1nc2cc(-n3nc(C)n(C(F)F)c3=O)c(Br)cc2s1` (stereo not drawn) [Compound 109], for which, in test [1], the “Herbicidal activity Setaria viridis (inhibition level)” value was “B (80 ≦ B < 90%)”. Further, the “Herbicidal activity Chenopodium album (inhibition level)” value in test [2] was “A (90 ≦ A ≦ 100%)”. Moreover, the “Herbicidal activity Echinochloa crusgalli (inhibition level)” value in test [3] is given as “A (90 ≦ A ≦ 100%)”. Also, the “Herbicidal activity Digiatria sanguinalis (inhibition level)” value in test [4] is “B (80 ≦ B < 90%)”. Moreover, in test [5], the “Herbicidal activity Brassica juncea (inhibition level)” value is recorded as “A (90 ≦ A ≦ 100%)”. In test [6], the “Herbicidal activity Amaranthus retroflexus (inhibition level)” value is on record as “B (80 ≦ B < 90%)”.

With `CCCSc1nc2cc(-n3nc(C)n(C(F)F)c3=O)c(F)cc2s1` [Compound 92], the “Herbicidal activity Setaria viridis (inhibition level)” value in test [1] is listed as “C (60 ≦ C < 80%)”. Further, in test [2], the “Herbicidal activity Chenopodium album (inhibition level)” value is on record as “E (E < 50%)”. In addition, the “Herbicidal activity Echinochloa crusgalli (inhibition level)” value in test [3] is on record as “B (80 ≦ B < 90%)”. In addition, the “Herbicidal activity Digiatria sanguinalis (inhibition level)” value in test [4] was “B (80 ≦ B < 90%)”. Besides, the “Herbicidal activity Brassica juncea (inhibition level)” value in test [5] is given as “A (90 ≦ A ≦ 100%)”. Besides, the “Herbicidal activity Amaranthus retroflexus (inhibition level)” value in test [6] is recorded as “A (90 ≦ A ≦ 100%)”.

In the case of `Cc1nn(-c2cc3nc(S(=O)(=O)Cc4cccc(Cl)c4)sc3cc2Cl)c(=O)n1C(F)F` [Compound 40], in test [1], the “Herbicidal activity Setaria viridis (inhibition level)” value is “C (60 ≦ C < 80%)”. The “Herbicidal activity Chenopodium album (inhibition level)” value in test [2] is on record as “D (50 ≦ D < 60%)”. In addition, in test [3], the “Herbicidal activity Echinochloa crusgalli (inhibition level)” value was “E (E < 50%)”. Moreover, the “Herbicidal activity Digiatria sanguinalis (inhibition level)” value in test [4] was “C (60 ≦ C < 80%)”. In test [5], the “Herbicidal activity Brassica juncea (inhibition level)” value was “B (80 ≦ B < 90%)”. Also, in test [6], the “Herbicidal activity Amaranthus retroflexus (inhibition level)” value was “B (80 ≦ B < 90%)”.

These data come from patent publication US7666890B2, “Synthesis and herbicidal activity of 1- (2-substituted benzo[d]thiazol-5-yl)-1H-1,2,4-triazol-5(4H)-one derivatives” (Huazhong Normal University, priority 2007, dated 2010).
